# Data reported in patent US20260365637A1, “DUAL EZH2-HSP90 INHIBITORS” (TAIPEI MEDICAL UNIVERSITY, priority 2023, published 2026).
# Assays:
# Pt3R cells [1] = assay: RNA-seq gene expression profiling in Pt3R cells; type: cell-based, human
# Description: Pt3 GBM cells were isolated from a GBM patient as described in our previous study. Temozolomide (TMZ)-resistant phenotype of Pt3R cells had been validated previously. Pt3 cells were cultured in DMEM-supplemented with 10% fetal bovine serum, 100 μg/ml streptomycin and 100 μg/ml penicillin G. Pt3R cells were cultured in the presence of 100 μM of TMZ (MilliporeSigma Corporate, St. Louis, MO, USA).
# RNA was isolated using the RNA extracting kit (Zymo Research, Irvine, CA, USA), and subjected to RNA-seq serviced by BIOTOOLS Co., Ltd (New Taipei City, Taiwan). Cell pellets were collected and subjected to proteomic analysis serviced by BIOTOOLS Co., Ltd. The comparison in gene expression between Pt3 and Pt3R was performed using RNA seq, and has been described previously.
# To gain insights regarding the ability of dual inhibitor 7 to suppress the viability of TMZ-resistant GBM cells, RNA-seq to analyze gene expression profiles was performed.
# Pt3R cells [2] = assay: Cell cycle analysis (propidium iodide, flow cytometry); type: cell-based, human; details: 24 h, FIG. 5E
# HSP90a = HSP90a (Homo sapiens, UniProt P07900); assay: In vitro HSP90 inhibition assay (Reaction Biology Corporation); type: biochemical
# Description: The HSP90 inhibitory activity of the synthesized adduct was assessed by Reaction Biology Corporation, Malvern, PA (http://www.reactionbiology.com).
# An in-vitro experiment was performed to assess the inhibitory effect of the synthesized adducts on the heat shock protein 90 (HSP90).
# Pt3R cells [3] = assay: Western blotting in Pt3R cells; type: cell-based, human
# Description: The details of the procedure are described in our previous study. Primary antibodies, anti-CENPA, anti-CENPE, anti-CENPF and anti-CENPI antibodies, were purchased from abcam (Cambridge, UK); anti-CDK1 and anti-cyclin B1 antibodies were purchased from Santa Cruz Biotechnology, Inc. (Dallas, TX, USA); anti-EZH2 and anti-H3K27^me3 antibodies were purchased from GeneTex International Corporation (Hsinchu, Taiwan).
# Furthermore, the impact of compound 7 treatment on centromere proteins (CENPs) was assessed. As such, CENPs are the main constituent proteins of the kinetochore, which are essential for cell division. CENP expression is elevated in GBM tissues and correlated with unfavourable overall survival in glioma patients.
# (§1) Treatment concentration of MPT1A059 was indicated.
# Pt3 cells = assay: Cellular ROS assay (DHR, flow cytometry) in Pt3 cells; type: cell-based, human; details: 48 h, FIG. 7A
# Description: Dihydrorhodamine 123 (DHR; Thermo Fisher Scientific, Waltham, MA, USA) was used to label cellular ROS detected by flow cytometry, and the MitoSOX reagent (Thermo Fisher Scientific) was used to label mitochondrial ROS [55].
# as §1
smiles,measurement,setting,value
"CCN(c1cc(-c2cccc(N(C)C(=O)c3cc(C(C)C)c(O)cc3O)c2)cc(C(=O)NCc2c(C)cc(C)[nH]c2=O)c1C)C1CCOCC1 [Compound 7, 3′-(2,4-dihydroxy-5-isopropyl-N-methylbenzamido)-N-((4,6-dimethyl-2-oxo-1,2-dihydropyridin-3-yl)methyl)-5-(ethyl(tetrahydro-2H-pyran-4-yl)amino)-4-methyl-[1,1′-biphenyl]-3-carboxamide]",DNA repair capacity,Pt3R cells [1],highly suppressed
same,"CENPF, CENPE, CENPA and CENPI (gene expression)",Pt3R cells [1]; FIG. 5C,decreased
same,RBBP8 and BRCA1 gene expression,Pt3R cells [1]; FIG. 6A,suppressed
same,expression of genes involved in processing DNA double-strand break and in homologous recombination,Pt3R cells [1]; FIG. 6A,decreased
same,"expression of genes regulating homologous recombination (TOP2A, RAD54B, RAD21, EME1, BRIP1)",Pt3R cells [1]; FIG. 6H,suppressed
same,cell division and DNA repair gene sets (GSEA),Pt3R cells [1]; GSEA,highly suppressed
same,M phase/kinetochore/spindle-related gene expression,Pt3R cells [1]; RNA-seq,decreased
same,apoptosis/necrosis-related gene expression,Pt3R cells [1]; RNA-seq,increased
same,number of gene expressions decreased,"Pt3R cells [1]; RNA-seq, 2 μM, 48 h",498
same,number of gene expressions increased,"Pt3R cells [1]; RNA-seq, 2 μM, 48 h",297
same,cell cycle,Pt3R cells [2],induced cell cycle arrest at the M phase
same,HSP90 inhibitory potential in words,HSP90a,conferred HSP90 inhibitory potential
same,IC50,HSP90a,60.1 nM
same,CDK1 and cyclin B1 expression,Pt3R cells [3]; FIG. 5D,downregulated
same,EZH2 expression and EZH2-modulated H3K27 trimethylation,Pt3R cells [3]; FIG. 7B,inhibited
same,"catalase, superoxide dismutase (SOD) 1, glutathione reductase and glutathione peroxidase (GPX) 1 proteins",Pt3R cells [3]; FIG. 7B,decreased
same,CENPs protein expression,"Pt3R cells [3]; Pt3R cells, FIG. 5D",decreased
same,ROS level,Pt3 cells,increased
